In patent publication US7090985B2, “Methods for the identification of agents for the treatment of seizures, neurological diseases, endocrinopathies and hormonal diseases” (UCB, S.A., priority 2002, dated 2006):

Legend:
[1] = biological target: T1, levetiracetam binding site (LBS) (Rattus norvegicus, UniProt Q02563); design: from tissue; host or cells: rat brain (crude membranes; 25 µm brain slices for autoradiography); settings: cited from earlier work
[2] = biological target: T2, human SV2A (Homo sapiens, UniProt Q7L0J3); assay: 3H-30889 intact cell binding to COS-7 cells transfected with SV2A; settings: displacement of 3H-30889, intact transfected COS-7 cells
T2 construct: expressed in transfected cells; host or cells: COS-7 cells, transient transfection (Lipofectamine 2000), vector pDEST 12.2
T2 sequence (Q7L0J3 whole entry): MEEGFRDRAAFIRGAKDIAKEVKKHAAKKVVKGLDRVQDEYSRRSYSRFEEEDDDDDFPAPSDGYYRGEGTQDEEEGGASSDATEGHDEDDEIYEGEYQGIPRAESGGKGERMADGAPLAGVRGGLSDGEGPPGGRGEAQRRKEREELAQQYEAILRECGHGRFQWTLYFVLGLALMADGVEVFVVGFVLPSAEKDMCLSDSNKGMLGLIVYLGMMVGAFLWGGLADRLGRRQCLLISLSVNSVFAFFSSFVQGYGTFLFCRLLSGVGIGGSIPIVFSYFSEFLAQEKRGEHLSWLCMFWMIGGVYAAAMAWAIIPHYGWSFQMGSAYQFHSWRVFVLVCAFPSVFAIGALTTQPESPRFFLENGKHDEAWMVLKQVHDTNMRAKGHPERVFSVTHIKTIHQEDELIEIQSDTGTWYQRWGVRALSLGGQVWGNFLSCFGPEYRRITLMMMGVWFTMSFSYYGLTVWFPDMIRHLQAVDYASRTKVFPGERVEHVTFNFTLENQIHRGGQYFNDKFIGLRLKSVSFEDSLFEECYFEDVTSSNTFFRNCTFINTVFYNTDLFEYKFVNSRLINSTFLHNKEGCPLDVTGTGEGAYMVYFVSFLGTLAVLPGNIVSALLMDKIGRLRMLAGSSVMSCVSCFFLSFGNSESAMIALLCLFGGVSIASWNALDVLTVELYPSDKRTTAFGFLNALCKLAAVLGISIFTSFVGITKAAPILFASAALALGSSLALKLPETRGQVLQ
Excerpt: The human SV2A coding region was transferred from the pDONR GATEWAY cloning vector to a pDEST 12.2 Gateway expression vector. This vector has a CMV promoter driving the introduced gene, and an SV40 ori, which allows very high levels of replication in the COS-7 cell line, which contains the large T antigen. In addition, the human SV2A coding region was transferred into a pDEST 40 Gateway expression vector. This vector is very similar to the 12.2 vector above, with a CMV promoter driving expression of hSV2A, and an SV40 ori, and a Neomycin resistance gene.
Lipofectamine 2000 (Invitrogen) transfection reagent was used to transfect DNA into 90% confluent COS-7 cells. Also, the same reagent was used to transfect the hSV2A containing vector into the PC12a cell line, and selecting for antibiotic resistance. Anti-SV2 polyclonal antibody (CalBiochem) was used to test for expression in either transfected COS-7 cells, or transfected PC 12a cells, of the SV2A product. Lysates of the COS-7 cells were collected at 18 hrs after transfection on an SDS-PAGE gel, transferred to a membrane, and probed with a polyclonal antibody against SV2A, in comparison to crude rat brain membranes (FIG. 12A). Also shown are lysates from a non-transfected COS-7 cells, non-transfected PC12a cells (low in LBS), PC12bs cells (high in LBS), or PC 12a cells transfected with hSV2A (FIG. 12B). No labeling of protein bands is observed in the untransfected COS-7 control, while the transfected COS-7 cells show multiple bands, with most density in the range of 80–120 kD, perhaps due to multiple glycosylation states of the expressed protein. […]
In a binding experiment, specific binding was measured of ^3H-30889 to COS-7 cells that have either been transfected with SV2A-12.2, or as controls, a β-gal expressing vector, or cells that have not been transfected (FIG. 13). […] The cells were lysed on the plate, transferred to scintillation vials with scintillation fluid and counted for ^3H decay emission. […]

[3] = adjunctive therapy, adults; cited from earlier work
[4] = test system: peripheral tissues including heart, kidneys, spleen, pancreas, adrenals, lungs and liver; settings: radiolabel studies; cited from earlier work
[5] = test system: audiogenic-susceptible mouse; settings: cited from earlier work
[6] = test system: peripheral tissues; assay: [3H]ucb 30889 specific binding in peripheral tissues; settings: 150 μg of protein/assay, 1.3 nM radioligand; limit of detection Bmax 200 fmol/mg protein
Description: The limit of detection under the experimental conditions (150 μg of protein/assay and 1.3 nM of radioligand) was a Bmax of 200 fmol/mg protein.

[7] = test system: PC12; assay: [3H]ucb 30889 binding in cell types; design: species or system rat
Description: (§1) To identify and characterize the LBS in situ, ^[3H]ucb 30889 was used to map the LBS within the brain and to study both its cellular and subcellular distribution. […] Binding assays with rat brain membranes and various neuronal cell lines were performed under similar conditions. […] For photolabeling, membranes were incubated with […] ^[3H]ucb 30889 for 120 min at 4° C. in the same buffer, followed by irradiation with UV-light for 30 min.
(§2) Abbreviation: nd, not detected.

[8] = test system: COS-7; assay: [3H]ucb 30889 binding in cell types; settings: untransfected COS-7 cell line
Description: as §1, §2
In addition, a PC12 cell line subclone, PC12a, which is low in LBS, was used to establish a pool of PC12 cells expressing hSV2A under stable antibiotic selection.

[9] = biological target: T1, levetiracetam binding site (LBS); assay: [3H]ucb 30889 binding on crude rat brain membranes (kinetics, saturation, competition)

T1 sequence (Q02563 whole entry): as the sequence (Q7L0J3 whole entry) above, with D53E, S62A, T71A, E144D, A154T, G440S, S482A, I572V, M634L counted along it

| SMILES | times less affinity for the LBS than levetiracetam ([1]; rat brain membranes) | IC50 against SV2A expressed in COS-7 cells (rank order) [2] | affinity ([1]; rat hippocampal membranes) | binding capacity ([1]; rat hippocampal membranes) | efficacy in controlling refractory partial seizures [3] | tolerability [3] | specific binding [4] | suppression of seizures [5] | specific binding [6] | Bmax [7] | Kd [7] | binding [8] | Kd [9] | Ki [9] |
| --- | --- | --- | --- | --- | --- | --- | --- | --- | --- | --- | --- | --- | --- | --- |
| CC[C@H](C(N)=O)N1CCCC1=O [ucb L060] | about 1000 times | same rank order as seen in studies of LBS in rat brain | – | – | – | – | – | – | – | – | – | – | – | – |
| CC[C@@H](C(N)=O)N1CCCC1=O [levetiracetam, (S)-α-ethyl-2-oxo-1-pyrrolidine acetamide] | – | same rank order as seen in studies of LBS in rat brain | modest affinity | high binding capacity | effective | well tolerated | no specific binding | unexpected potent ability | – | – | – | – | – | – |
| CC[C@@H](C(N)=O)N1CC(c2cccc(N=[N+]=[N-])c2)CC1=O (stereo partly shown) [ucb 30889] | – | same rank order as seen in studies of LBS in rat brain | – | – | – | – | – | – | could not be detected | 79000 sites/cell | 0.05 µM | no binding above background | 0.042 µM | 0.0794 µM |
